The text below walks through data of patent US20240415819A1, “MACROCYCLIC COMPOUNDS AS PROTEASOME SUBUNIT BETA TYPE-5 INHIBITORS” (Lead Discovery Center GmbH, priority 2021, published 2024).

The subject of assay [1] is A549 (human lung carcinoma cell line). The assay is described as follows: Glo assay of A549 cells (Table 3; ProteasomeGlo plating scheme). In kind it is cell-based. The following applies: Homo sapiens. Summed up: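 Cells plated in 384 wells; compound, DMSO, staurosporine transferred by ECHO; 105 min, 37° C., 5% CO2; Proteasome-Glo (Suc-LLVY-Glo) reagent added; dark 10-15 min; luminescence; IC50 nM.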

Assay [2] deals with T1, β5 subunit of the human immunoproteasome (IPS) (Homo sapiens, UniProt P28062).
T1 construct: purchased Boston Biochem E-370
The assay can be described thus: β5 inhibition assay, human immunoproteasome (Suc-LLVY-AMC). In kind it is biochemical. The following applies: IC50 class, Suc-LLVY-AMC substrate. Summed up:
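β5 activity is read as liberated AMC fluorescence (355/460 nm) after 4 h dark reaction at RT with 22.6 μM Suc-LLVY-AMC, stopped by 1 μM bortezomib. Beforehand, 1 nM human IPS and compound sat 10 min at RT in HEPES pH 7.5 buffer containing NaCl, 0.02% SDS and DTT.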

The mark [3] stands for this setting: A549 cells, read-out: PGLo A549.

Where two headings read alike, the source gives them in different places. Where only a bound is given, the exact number is not on record here.

Turning to `CNCCOCC(=O)N[C@H]1CC(=O)N2CCCC(CCOc3ccc(C)c(c3)CNC(=O)[C@H](CCc3ccccc3)NC1=O)C2` (stereo partly drawn) [Compound 130, N-((9S,12S)-5^4-methyl-8,11,14-trioxo-9-phenethyl-4-oxa-7,10-diaza-1(3,1)-piperidina-5(1,3)-benzenacyclotetradecaphane-12-yl)-2-(2-(methylamino)ethoxy)acetamide], the results for the IC50 in assay [1] (setting [3]) and in assay [2] were 100 to 500 nM and below 0.1 µM, respectively.
For `Cc1ccc2cc1CNC(=O)[C@H](C)NC(=O)CCC(=O)N1CCCC(CCO2)C1` (stereo partly drawn) [Compound 78, (9S)-5^4,9-dimethyl-4-oxa-7,10-diaza-1(3,1)-piperidina-5(1,3)-benzenacyclotetradecaphane-8,11,14-trione] the same measures were above 5000 nM and 0.1 to 0.5 µM.
On the same counts, the results for `Cc1ccc2cc1CNC(=O)[C@H](CCc1ccccc1)NC(=O)[C@@H](NC(=O)C1CCNCC1(F)F)CC(=O)N1CCCC(CCO2)C1` (stereo partly drawn) [Compound 152, 3,3-difluoro-N-((9S,12S)-5^4-methyl-8,11,14-trioxo-9-phenethyl-4-oxa-7,10-diaza-1(3,1)-piperidina-5(1,3)-benzenacyclotetradecaphane-12-yl)piperidine-4-carboxamide] are below 100 nM and below 0.1 µM.
For `Cc1ccc2cc1CNC(=O)[C@H](CCc1ccccc1)NC(=O)[C@@H](NC(=O)CCc1ccc(-c3ccccc3)cc1)CC(=O)N1CCCC(CCO2)C1` (stereo partly drawn) [Compound 176, 3-([1,1′-biphenyl]-4-yl)-N-((9S,12S)-5^4-methyl-8,11,14-trioxo-9-phenethyl-4-oxa-7,10-diaza-1(3,1)-piperidina-5(1,3)-benzenacyclotetradecaphane-12-yl)propanamide] the same measures were below 100 nM and below 0.1 µM.
`CCC(CC)(CO)C(=O)N[C@H]1CC(=O)N2CCCC(CCOc3ccc(C)c(c3)CNC(=O)[C@H](CCc3ccccc3)NC1=O)C2` (stereo partly drawn) [Compound 285, 2-ethyl-2-(hydroxymethyl)-N-((9S,12S)-5^4-methyl-8,11,14-trioxo-9-phenethyl-4-oxa-7,10-diaza-1(3,1)-piperidina-5(1,3)-benzenacyclotetradecaphane-12-yl)butanamide]: the IC50 in assay [1] (setting [3]) was 100 to 500 nM; in assay [2], below 0.1 µM.
On to `Cc1ccc2cc1CNC(=O)[C@H](Cc1c[nH]c3ccccc13)NC(=O)CCC(=O)N1CCCC(CCO2)C1` (stereo partly drawn) [Compound 77, (9S)-9-((1H-indol-3-yl)methyl)-5^4-methyl-4-oxa-7,10-diaza-1(3,1)-piperidina-5(1,3)-benzenacyclotetradecaphane-8,11,14-trione], for which the IC50 in assay [1] (setting [3]) is 500 to 1000 nM; in assay [2], below 0.1 µM.
Consider `CC(=O)N[C@H]1CCC(=O)N2CCCC(CCOc3ccc(C)c(c3)CNC(=O)[C@H](CCc3ccccc3)NC1=O)C2` (stereo partly drawn) [Compound 215, N-((9S,12S)-5^4-methyl-8,11,15-trioxo-9-phenethyl-4-oxa-7,10-diaza-1(3,1)-piperidina-5(1,3)-benzenacyclopentadecaphane-12-yl)acetamide], for which the values for the IC50 in assay [1] (setting [3]) and in assay [2] were 100 to 500 nM and below 0.1 µM, respectively.
With `Cc1ccc2cc1CNC(=O)[C@H](CCc1ccccc1)NC(=O)[C@@H](NC(=O)C(C)(C)C#N)CC(=O)N1CCCC(CCO2)C1` (stereo partly drawn) [Compound 294, 2-cyano-2-methyl-N-((9S,12S)-54-methyl-8,11,14-trioxo-9-phenethyl-4-oxa-7,10-diaza-1(3,1)-piperidina-5(1,3)-benzenacyclotetradecaphane-12-yl)propanamide], the IC50 in assay [1] (setting [3]) is below 100 nM; in assay [2], below 0.1 µM.
For `Cc1ccc2cc1CNC(=O)[C@H](CCc1ccccc1)NC(=O)[C@@H](NC(=O)CCc1ccc(Br)cc1)CC(=O)N1CCCC(CCO2)C1` (stereo partly drawn) [Compound 175, 3-(4-bromophenyl)-N-((9S,12S)-5^4-methyl-8,11,14-trioxo-9-phenethyl-4-oxa-7,10-diaza-1(3,1)-piperidina-5(1,3)-benzenacyclotetradecaphane-12-yl)propanamide] the same measures were below 100 nM and below 0.1 µM.
Take `Cc1ccc2cc1CNC(=O)[C@H](CCc1ccccc1)NC(=O)[C@@H](NS(C)(=O)=O)CC(=O)N1CCCC(CCO2)C1` (stereo partly drawn) [Compound 37, N-((9S,12S)-5^4-methyl-8,11,14-trioxo-9-phenethyl-4-oxa-7,10-diaza-1(3,1)-piperidina-5(1,3)-benzenacyclotetradecaphane-12-yl)methanesulfonamide]: the figures for the IC50 in assay [1] (setting [3]) and in assay [2] were below 100 nM and below 0.1 µM, respectively.
As to `COc1ccccc1CC(=O)N[C@H]1CC(=O)N2CCCC(CCOc3ccc(C)c(c3)CNC(=O)[C@H](CCc3ccccc3)NC1=O)C2` (stereo partly drawn) [Compound 84, 2-(2-methoxyphenyl)-N-((9S,12S)-5^4-methyl-8,11,14-trioxo-9-phenethyl-4-oxa-7,10-diaza-1(3,1)-piperidina-5(1,3)-benzenacyclotetradecaphane-12-yl)acetamide], the values for the IC50 in assay [1] (setting [3]) and in assay [2] were below 100 nM and below 0.1 µM, respectively.
For `Cc1ccc2cc1CNC(=O)C(CCc1cccnc1)NC(=O)CCC(=O)N1CCCC(CCO2)C1` (centres unmarked) [Compound 51, 5^4-methyl-9-(2-(pyridin-3-yl)ethyl)-4-oxa-7,10-diaza-1(3,1)-piperidina-5(1,3)-benzenacyclotetradecaphane-8,11,14-trione] the same measures were 100 to 500 nM and below 0.1 µM.
For `Cc1ccc2cc1CNC(=O)[C@H](CCc1ccccc1)NC(=O)[C@@H](NC(=O)OCc1ccccc1)CCCC(=O)N1CCCC(CCO2)C1` (stereo partly drawn) [Compound 195, benzyl ((9S,12S)-5^4-methyl-8,11,16-trioxo-9-phenethyl-4-oxa-7,10-diaza-1(3,1)-piperidina-5(1,3)-benzenacyclohexadecaphane-12-yl)carbamate] the same measures were 100 to 500 nM and below 0.1 µM.
Regarding `CC(=O)N[C@H]1CCCC(=O)N2CCC2(C)COc2ccc(C)c(c2)CNC(=O)[C@H](CCc2ccccc2)NC1=O` (stereo partly drawn) [Compound 281, N-((8S,11S)-1^2,4^4-dimethyl-7,10,15-trioxo-8-phenethyl-3-oxa-6,9-diaza-1(2,1)-azetidina-4(1,3)-benzenacyclopentadecaphane-11-yl)acetamide], the IC50 is 1000 to 5000 nM in assay [1] (setting [3]) and 1 to 5 µM in assay [2].
For `COc1cccc(CC(=O)N[C@H]2CC(=O)N3CCCC(CCOc4ccc(C)c(c4)CNC(=O)[C@H](CCc4ccccc4)NC2=O)C3)c1` (stereo partly drawn) [Compound 85, 2-(3-methoxyphenyl)-N-((9S,12S)-5^4-methyl-8,11,14-trioxo-9-phenethyl-4-oxa-7,10-diaza-1(3,1)-piperidina-5(1,3)-benzenacyclotetradecaphane-12-yl)acetamide] the same measures were below 100 nM and below 0.1 µM.
For `CC(=O)N[C@H]1CCC(=O)NCCCCOc2ccc(C)c(c2)CNC(=O)[C@H](CCc2ccccc2)NC1=O` [Compound 171, N-((11S,14S)-1^4-methyl-8,12,15-trioxo-14-phenethyl-2-oxa-7,13,16-triaza-1(1,3)-benzenacycloheptadecaphane-11-yl)acetamide] the same measures were 500 to 1000 nM and below 0.1 µM.
On the same counts, the results for `Cc1ccc2cc1CNC(=O)[C@H](CCc1ccccc1)NC(=O)[C@@H](NC(=O)CCc1ccccc1-c1ccccc1)CC(=O)N1CCCC(CCO2)C1` (some centres unmarked) [Compound 177] are below 100 nM and below 0.1 µM.
Regarding `Cc1ccc2cc1CNC(=O)[C@H](CCc1ccccc1)NC(=O)[C@@H](NC(=O)C1(C)CCNCC1)CC(=O)N1CCCC(CCO2)C1` (stereo partly drawn) [Compound 136, 4-methyl-N-((9S,12S)-5^4-methyl-8,11,14-trioxo-9-phenethyl-4-oxa-7,10-diaza-1(3,1)-piperidina-5(1,3)-benzenacyclotetradecaphane-12-yl)piperidine-4-carboxamide], the values for the IC50 in assay [1] (setting [3]) and in assay [2] were below 100 nM and below 0.1 µM, respectively.
For `Cc1ccc2cc1CNC(=O)[C@H](CCc1ccccc1)NC(=O)[C@@H](NC(=O)c1ccncc1)CC(=O)N1CCCC(CCO2)C1` (stereo partly drawn) [Compound 42, N-((9S,12S)-5^4-methyl-8,11,14-trioxo-9-phenethyl-4-oxa-7,10-diaza-1(3,1)-piperidina-5(1,3)-benzenacyclotetradecaphane-12-yl)isonicotinamide], the IC50 was below 100 nM in assay [1] (setting [3]) and below 0.1 µM in assay [2].
On the same counts, the results for `Cc1ccc2cc1CNC(=O)[C@H](CCc1ccccc1)NC(=O)[C@@H](N)CC(=O)N1CCCC(CCO2)C1` (stereo partly drawn) [Compound 8, (9S,12S)-12-amino-5^4-methyl-9-phenethyl-4-oxa-7,10-diaza-1(3,1)-piperidina-5(1,3)-benzenacyclotetradecaphane-8,11,14-trione] are 500 to 1000 nM and below 0.1 µM.
For `CCOC(=O)N[C@H]1CC(=O)N2CCCC(CCOc3ccc(C)c(c3)CNC(=O)[C@H](CCc3ccccc3)NC1=O)C2` (stereo partly drawn) [Compound 39, ethyl ((9S,12S)-5^4-methyl-8,11,14-trioxo-9-phenethyl-4-oxa-7,10-diaza-1(3,1)-piperidina-5(1,3)-benzenacyclotetradecaphane-12-yl)carbamate], the IC50 in assay [1] (A549, read-out: PGLo A549 [nM]) was below 100 nM; in assay [2] it was below 0.1 µM.
In the case of `COc1ccc(CC(=O)N[C@H]2CC(=O)N3CCCC(CCOc4ccc(C)c(c4)CNC(=O)[C@H](CCc4ccccc4)NC2=O)C3)cc1` (stereo partly drawn) [Compound 83, 2-(4-methoxyphenyl)-N-((9S,12S)-5^4-methyl-8,11,14-trioxo-9-phenethyl-4-oxa-7,10-diaza-1(3,1)-piperidina-5(1,3)-benzenacyclotetradecaphane-12-yl)acetamide], the IC50 was below 100 nM in assay [1] (setting [3]) and below 0.1 µM in assay [2].
